# Patent publication US20040152674A1, “Pharmaceutically active compounds and methods of use thereof” (Trustees of Tufts College, priority 1998, published 2004)
# What was measured:
# Experiment in all cases: MIC by broth dilution method (Table 4)
# Format in all cases: cell-based
# Design in all cases: unit not given here
# E. faecalis ATCC9790 = details: E. faecalis Tc^r ATCC9790; 18 hours
# Method: (§1) The minimum inhibitory concentration, the lowest concentration of drug that inhibits bacterial growth at 18 hours at their appropriate temperature, is determined by the broth dilution method using L-broth or Muller-Hinton broth. The Muller-Hinton broth was cation-adjusted accordingly and all bacteriological methods were performed as was described by Waitz, J. A., National Commision for Clinical Laboratory Standards Document M7-A2, vol.10, no. 8, pp.13-20, 2nd edition, Villanova, Pa. (1990). The organisms tested represent gram-positive and gram-negative bacterial species that are susceptible to tetracyclines or are resistant to tetracyclines due to the ability to efflux tetracyclines or which confer resistance by ribosomal protection mechanisms. The clinical strains used are either susceptible to tetracyclines or are resistant to them by either drug efflux or ribosomal protection.
# S. aureus ATCC12715 = details: S. aureus Tc^r ATCC12715; 18 hours
# Method: as §1
# S. aureus MRSA5 = S. aureus MRSA5 Tc^r; 18 hours
# Method: as §1
# S. aureus RN4250 = S. aureus RN4250 Tc^r; 18 hours
# Method: as §1
# S. aureus RN450 = S. aureus RN450 Tc^s; 18 hours
# Method: as §1
# E. coli D31m4(pHCM1) = E. coli D31m4(pHCM1) Tcr; 18 hours
# Method: as §1
# E. coli D31m4 = details: E. coli D31m4* Tc^r, lipopolysaccharide-deficient mutant; 18 hours
# Method: as §1
# E. faecalis pMV158 = E. faecalis pMV158 Tc^r; 18 hours
# Method: as §1
SMILES,Antibacterial activity (minimum inhibitory concentration) (E. faecalis ATCC9790),Antibacterial activity (minimum inhibitory concentration) (S. aureus ATCC12715),Antibacterial activity (minimum inhibitory concentration) (S. aureus MRSA5),Antibacterial activity (minimum inhibitory concentration) (S. aureus RN4250),Antibacterial activity (minimum inhibitory concentration) (S. aureus RN450),Antibacterial activity (minimum inhibitory concentration) (E. coli D31m4(pHCM1)),Antibacterial activity (minimum inhibitory concentration) (E. coli D31m4),Antibacterial activity (minimum inhibitory concentration) (E. faecalis pMV158)
"CC1c2ccc(C(C)(C)C)c(O)c2C(=O)C2=C(O)[C@]3(O)C(=O)C(C(N)=O)=C(O)[C@@H](N(C)C)C3C(O)C21 (stereo partly drawn) [A, [4S-(4alpha,12aalpha)]-9-(tert-butyl)-4-(dimethylamino)-1,4,4a,5,5a,6,11,12a-octahydro-3,5,10,12,12a-pentahydroxy-6-methyl-1,11-dioxo-2-naphthacenecarboxamide]",1.56,3.12,3.12,1.56,0.78,,,
"CC1c2ccc(C(C)(C)C)c(O)c2C(=O)C2=C(O)[C@]3(O)C(=O)C(C(N)=O)=C(O)[C@@H](N(C)C)C3C(OC(=O)C3CCC3)C21 (stereo partly drawn) [D, [4S-(4alpha,12aalpha)]-9-(tert-butyl)-4-(dimethylamino)-5-cyclobutylcarbonyloxy-1,4,4a,5,5a,6,11,12a-octahydro-3,10,12,12a-tetrahydroxy-6-methyl-1,11-dioxo-2-naphthacenecarboxamide]",0.78,3.12,1.56,3.12,0.78,50,50,50
"CC1c2ccc(C3(C)CCCCC3)c(O)c2C(=O)C2=C(O)[C@]3(O)C(=O)C(C(N)=O)=C(O)[C@@H](N(C)C)C3C(O)C21 (stereo partly drawn) [E, [4S-(4alpha,12aalpha)]-9-[1′-(1′-methyl)cyclohexyl]-4-(dimethylamino)-1,4,4a,5,5a,6,11,12a-octahydro-3,5,10,12,12a-pentahydroxy-6-methyl-1,11-dioxo-2-naphthacenecarboxamide]",0.39,6.25,6.25,6.25,1.56,25,25,
"CC1c2ccc(C(C)(C)CCCC#N)c(O)c2C(=O)C2=C(O)C3(O)C(=O)C(C(N)=O)=C(O)C(N(C)C)C3C(O)C21 (stereo not drawn) [L, [4S-(4alpha,12aalpha)]-9-[4′-(1′-cyano-4′-methyl)pentyl]-4-(dimethylamino)-1,4,4a,5,5a,6,11,12a-octahydro-3,5,10,12,12a-pentahydroxy-6-methyl-1,11-dioxo-2-naphthacenecarboxamide]",3.12,6.25,6.25,3.12,1.56,,,
"CC1c2ccc(C3(C)CCC3)c(O)c2C(=O)C2=C(O)[C@]3(O)C(=O)C(C(N)=O)=C(O)[C@@H](N(C)C)C3C(O)C21 (stereo partly drawn) [G, [4S-(4alpha,12aalpha)]-9-[1′-(1′-methyl)cyclobutyl]-4-(dimethylamino)-1,4,4a,5,5a,6,11,12a-octahydro-3,5,10,12,12a-pentahydroxy-6-methyl-1,11-dioxo-2-naphthacenecarboxamide]",0.78,3.12,0.08,3.12,1.56,6.25,6.25,
